Patent publication US20070172957A1, “Methods of identifying anti-inflammatory macrolides” (TAISHO PHARMACEUTICAL CO., LTD., priority 2004, published 2007)

Tested on: genes predictive for the anti-inflammatory macrolide effect
Experiment: Genes statistically predictive of Clari response: differentially expressed with Clari but not the inactive macrolides MAA or Josa (Appendix E)
Assay type: cell-based
Description: In the case of the above-mentioned (i) related to arachidonic acid biosynthesis, specifically, methods of the embodiment involve assaying whether a test macrolide alters biosynthesis of arachidonic acid, alters the expression or activities of enzymes involved in the biosynthesis or activation of arachidonic acid (e.g., arachidonic acid CoA synthetase, delta-6 desaturase, fatty acid elongase, and delta-5 desaturase, AA-related genes in Tables 2 and 3), or alters the expression of genes identified as predictive for the anti-inflammatory macrolide effect (Appendix E). Assays in which arachidonic acid or gene expression or enzymatic activity is detected can be carried out after contacting a cell with a test macrolide. Any cell line that secretes prostaglandin or produces arachidonic acid can be used. Epithelial and macrophages lines (e.g., A549 or THP-1) are suitable for this purpose; other cell lines can be identified by carrying out assays such as those described in the specific Examples, below. Alternatively, screening assays can be carried out after adding a test macrolide to an in vitro cell system (e.g., a cellular extract or liver microsome preparation) or an in vitro enzyme assay system.

## CO[C@@H]1[C@@H](O[C@@H]2O[C@H](C)[C@@H](O[C@H]3C[C@@](C)(O)[C@@H](OC(=O)CC(C)C)[C@H](C)O3)[C@H](N(C)C)[C@H]2O)[C@@H](CC=O)C[C@@H](C)[C@@H](O)/C=C/C=C/C[C@@H](C)OC(=O)C[C@H]1OC(C)=O [josamycin]
SpotID 46579, MAA and Josa vs. Clari
  group mean, gene SERPING1: 1.03
SpotID 46586, MAA and Josa vs. Clari
  group mean, gene C12orf8: 0.98
SpotID 46633, pooled group mean
  mean group, FLJ20699: 1.00
SpotID 46648, pooled group mean
  mean group, ARHGAP1: 1.07
SpotID 46679, MAA and Josa vs. Clari
  group mean, gene KIAA1172: 1.04
SpotID 46679, pooled group mean
  mean group, KIAA1172: 1.04
SpotID 46825, MAA and Josa vs. Clari
  group mean, gene MKNK2: 0.94
SpotID 46825, pooled group mean
  mean group, MKNK2: 0.94
SpotID 46838, MAA and Josa vs. Clari
  group mean, gene PRKAR1A: 1.04
SpotID 46843, MAA and Josa vs. Clari
  group mean, gene ARHGDIA: 1.08
SpotID 46843, pooled group mean
  mean group, ARHGDIA: 1.08
SpotID 46882, MAA and Josa vs. Clari
  group mean, gene HEXA: 0.97
SpotID 46896, MAA and Josa vs. Clari
  group mean, gene CDIPT: 0.91
SpotID 46896, pooled group mean
  mean group, CDIPT: 0.91
SpotID 46923, pooled group mean
  mean group, PACE: 1.00
SpotID 46935, MAA and Josa vs. Clari
  group mean, gene METAP2: 1.05
SpotID 46935, pooled group mean
  mean group, METAP2: 1.05
SpotID 46979, MAA and Josa vs. Clari
  group mean, gene HSPBP1: 1.02
SpotID 46988, pooled group mean
  mean group, EREG: 1.11
SpotID 46991, MAA and Josa vs. Clari
  group mean, gene TFPI2: 1.00
SpotID 47034, MAA and Josa vs. Clari
  group mean, gene C2orf3: 1.01
SpotID 47034, pooled group mean
  mean group, C2orf3: 1.01
SpotID 47056, MAA and Josa vs. Clari
  group mean, gene NFRKB: 0.96
SpotID 47111, MAA and Josa vs. Clari
  group mean, gene GOLGB1: 1.01
SpotID 47123, MAA and Josa vs. Clari
  group mean, gene MCM2: 0.97
SpotID 47131, MAA and Josa vs. Clari
  group mean, gene KIAA0251: 0.92
SpotID 47192, MAA and Josa vs. Clari
  group mean, gene ARHGAP1: 1.10
SpotID 47212, MAA and Josa vs. Clari
  group mean, gene ITGB5: 0.94
SpotID 47241, pooled group mean
  mean group, NUBP1: 1.04
SpotID 47249, MAA and Josa vs. Clari
  group mean, gene AKR1A1: 0.93
SpotID 47251, MAA and Josa vs. Clari
  group mean, gene HKE4: 0.94
SpotID 47314, pooled group mean
  mean group, EPOR: 0.99
SpotID 47352, MAA and Josa vs. Clari
  group mean, gene ADAM11: 0.93
SpotID 47352, pooled group mean
  mean group, ADAM11: 0.93
SpotID 47354, MAA and Josa vs. Clari
  group mean, gene ERF: 1.15
SpotID 47366, pooled group mean
  mean group, P4HB: 1.05
SpotID 47406, MAA and Josa vs. Clari
  group mean, gene MTHFD1: 1.12
SpotID 47415, pooled group mean
  mean group, CETN2: 1.06
SpotID 47418, MAA and Josa vs. Clari
  group mean, gene SNK: 1.03
SpotID 47418, pooled group mean
  mean group, SNK: 1.03
SpotID 47432, pooled group mean
  mean group, GCS1: 0.90
SpotID 47439, MAA and Josa vs. Clari
  group mean, gene DCTN1: 1.04
SpotID 47439, pooled group mean
  mean group, DCTN1: 1.04
SpotID 47446, MAA and Josa vs. Clari
  group mean, gene RANBP1: 1.04
SpotID 47446, pooled group mean
  mean group, RANBP1: 1.04
SpotID 47504, pooled group mean
  mean group, MSH3: 1.09
SpotID 47522, pooled group mean
  mean group, SERPINA1: 1.04
SpotID 47524, MAA and Josa vs. Clari
  group mean, gene PTK2B: 1.34
SpotID 47535, MAA and Josa vs. Clari
  group mean, gene ARHGDIA: 1.08
SpotID 47622, MAA and Josa vs. Clari
  group mean, gene TRAP1: 1.09
SpotID 47622, pooled group mean
  mean group, TRAP1: 1.09
SpotID 47661, MAA and Josa vs. Clari
  group mean, gene HSPA9B: 1.10
SpotID 47679, pooled group mean
  mean group, NR4A2: 0.95
SpotID 47694, MAA and Josa vs. Clari
  group mean, gene HSPA9B: 1.09
SpotID 47694, pooled group mean
  mean group, HSPA9B: 1.09
SpotID 47705, MAA and Josa vs. Clari
  group mean, gene MAD4: 0.97
SpotID 47754, MAA and Josa vs. Clari
  group mean, gene NBS1: 1.18
SpotID 47754, pooled group mean
  mean group, NBS1: 1.18
SpotID 47755, MAA and Josa vs. Clari
  group mean, gene KIAA1922: 1.14
SpotID 47776, MAA and Josa vs. Clari
  group mean, gene POLA: 1.02
SpotID 47776, pooled group mean
  mean group, POLA: 1.02
SpotID 47793, MAA and Josa vs. Clari
  group mean, gene BET3: 0.95
SpotID 47802, MAA and Josa vs. Clari
  group mean, gene GOT1: 1.02
SpotID 47802, pooled group mean
  mean group, GOT1: 1.02
SpotID 47811, MAA and Josa vs. Clari
  group mean, gene ENTPD6: 0.93
SpotID 47811, pooled group mean
  mean group, ENTPD6: 0.93
SpotID 47846, pooled group mean
  mean group, SSI-1: 1.03
SpotID 47850, MAA and Josa vs. Clari
  group mean, gene PRLR: 1.09
SpotID 47850, pooled group mean
  mean group, PRLR: 1.09
SpotID 47898, MAA and Josa vs. Clari
  group mean, gene ERF: 1.14
SpotID 47911, MAA and Josa vs. Clari
  group mean, gene YWHAE: 1.04
SpotID 47926, MAA and Josa vs. Clari
  group mean, gene CCNE2: 0.98
SpotID 47935, MAA and Josa vs. Clari
  group mean, gene P4HA1: 0.95
SpotID 47935, pooled group mean
  mean group, P4HA1: 0.95
SpotID 47937, MAA and Josa vs. Clari
  group mean, gene CTSB: 0.98
SpotID 47939, MAA and Josa vs. Clari
  group mean, gene INPP5E: 0.99
SpotID 47947, MAA and Josa vs. Clari
  group mean, gene SF3B3: 1.10
